What was measured:
Type in all cases: in vivo
[1] = test system: barnyardgrass (Echinochloa crus-galli L.): ECHCG; test: Test Example 1 pre-emergence herbicidal activity, ECHCG; conditions: visually observed 20th to 23rd day after application
In short: (§1)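 Plants were sown in pots of upland field soil and treated the following day, before emergence, with the formulated compound sprayed in 500 L/ha water. Herbicidal effect was judged by eye 20–23 days later on a 0–100% scale.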

[2] = test system: crabgrass (Digitaria sanguinalis L.): DIGSA; test: Test Example 1 pre-emergence herbicidal activity, DIGSA; conditions: visually observed 20th to 23rd day after application
In short: as §1

[3] = test system: green foxtail (Setaria viridis L.): SETVI; test: Test Example 1 pre-emergence herbicidal activity, SETVI; conditions: visually observed 20th to 23rd day after application
In short: as §1

[4] = test system: redroot pigweed (Amaranthus retroflexus L.): AMARE; test: Test Example 1 pre-emergence herbicidal activity, AMARE; conditions: visually observed 20th to 23rd day after application
In short: as §1

[5] = test system: prickly sida (Sida spinosa L.): SEDSP; test: Test Example 1 pre-emergence herbicidal activity, SIDSP; conditions: visually observed 20th to 23rd day after application
In short: as §1

[6] = test system: velvetleaf (Abutilon theophrasti): ABUTH; test: Test Example 1 pre-emergence herbicidal activity, ABUTH; conditions: visually observed 20th to 23rd day after application
In short: as §1

[7] = test system: rice (Oryza sativa L.): ORYSA; test: Test Example 1 pre-emergence herbicidal activity, ORYSA; conditions: visually observed 20th to 23rd day after application
In short: as §1

[8] = test system: wheat (Triticum aestivum L.): TRZAX; test: Test Example 1 pre-emergence herbicidal activity, TRZAX; conditions: visually observed 20th to 23rd day after application
In short: as §1

[9] = test system: corn (Zea mays L.): ZEAMX; test: Test Example 1 pre-emergence herbicidal activity, ZEAMX; conditions: visually observed 20th to 23rd day after application
In short: as §1

[10] = test system: soybean (Glycine max Merr.): GLXMA; test: Test Example 1 pre-emergence herbicidal activity, GLXMA; conditions: visually observed 20th to 23rd day after application
In short: as §1

[11] = test system: barnyardgrass (Echinochloa crus-galli L.), ECHCG; test: Test Example 2 post-emergence (foliage treatment) herbicidal activity, ECHCG; conditions: 63 g a.i./ha
In short: (§2)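 Seeds are sown in upland soil in pots, and seedlings are sprayed once they reach set leaf stages (pigweed 0.1-1.5, barnyardgrass 1.1-2.1, crabgrass 1.0-2.0, rice 1.0-2). The formulated compound goes on in 500 L/ha water containing 0.1% (v/v) spreader. Effect is judged by eye 20-23 days on, as percent control.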

[12] = test system: crabgrass (Digitaria sanguinalis L.), DIGSA; test: Test Example 2 post-emergence (foliage treatment) herbicidal activity, DIGSA; conditions: 63 g a.i./ha
In short: as §2

[13] = test system: green foxtail (Setaria viridis L.), SETVI; test: Test Example 2 post-emergence (foliage treatment) herbicidal activity, SETVI; conditions: 63 g a.i./ha
In short: (§3)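 A small sprayer delivered the diluted WP or EC formulation (500 L/ha water, 0.1% v/v spreader) over emerged seedlings in upland soil pots. Damage relative to untreated plants was graded visually from 0 to 100% three weeks or so later (days 20-23).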

[14] = test system: redroot pigweed (Amaranthus retroflexus L.), AMARE; test: Test Example 2 post-emergence (foliage treatment) herbicidal activity, AMARE; conditions: 63 g a.i./ha
In short: as §2

[15] = test system: prickly sida (Sida spinosa L.), SIDSP; test: Test Example 2 post-emergence (foliage treatment) herbicidal activity, SIDSP; conditions: 63 g a.i./ha
In short: as §3

[16] = test system: velvetleaf (Abutilon theophrasti), ABUTH; test: Test Example 2 post-emergence (foliage treatment) herbicidal activity, ABUTH; conditions: 63 g a.i./ha
In short: as §3

[17] = test system: rice (Oryza sativa L.), ORYSA; test: Test Example 2 post-emergence (foliage treatment) herbicidal activity, ORYSA; conditions: 63 g a.i./ha
In short: as §2

[18] = test system: wheat (Triticum aestivum L.), TRZAX; test: Test Example 2 post-emergence (foliage treatment) herbicidal activity, TRZAX; conditions: 63 g a.i./ha
In short: as §3

[19] = test system: corn (Zea mays L.), ZEAMX; test: Test Example 2 post-emergence (foliage treatment) herbicidal activity, ZEAMX; conditions: 63 g a.i./ha
In short: as §3

[20] = test system: soybean (Glycine max Merr.), GLXMA; test: Test Example 2 post-emergence (foliage treatment) herbicidal activity, GLXMA; conditions: 63 g a.i./ha
In short: as §3

SMILES | Pre-emergence Herbicidal Activity ECHCG (growth controlling degree) ([1]; Rate 63 g a.i./ha) [%] | Pre-emergence Herbicidal Activity DIGSP (growth controlling degree) ([2]; Rate 63 g a.i./ha) [%] | Pre-emergence Herbicidal Activity SETVI (growth controlling degree) ([3]; Rate 63 g a.i./ha) [%] | Pre-emergence Herbicidal Activity AMARE (growth controlling degree) ([4]; Rate 63 g a.i./ha) [%] | Pre-emergence Herbicidal Activity SIDSP (growth controlling degree) ([5]; Rate 63 g a.i./ha) [%] | Pre-emergence Herbicidal Activity ABUTH (growth controlling degree) ([6]; Rate 63 g a.i./ha) [%] | Pre-emergence Herbicidal Activity ORYSA (growth controlling degree) ([7]; Rate 63 g a.i./ha) [%] | Pre-emergence Herbicidal Activity TRZAX (growth controlling degree) ([8]; Rate 63 g a.i./ha) [%] | Pre-emergence Herbicidal Activity ZEAMX (growth controlling degree) ([9]; Rate 63 g a.i./ha) [%] | Pre-emergence Herbicidal Activity GLXMA (growth controlling degree) ([10]; Rate 63 g a.i./ha) [%] | growth controlling degree, ECHCO [11] [%] | growth controlling degree, DIGSP [12] [%] | growth controlling degree, SETVI [13] [%] | growth controlling degree, AMARE [14] [%] | growth controlling degree, SIDSP [15] [%] | growth controlling degree, ABUTH [16] [%] | growth controlling degree, ORYSA [17] [%] | growth controlling degree, TRZAX [18] [%] | growth controlling degree, ZEAMX [19] [%] | growth controlling degree, GLXMA [20] [%] | further results
COc1c(Cl)cc(F)c(-c2nn(C)c(OC(F)F)c2Cl)c1NC(=O)C(C)(C)Oc1ccccc1 [Compound 1-38] | 0 | 10 | 20 | 20 | 0 | 0 | 0 | 0 | 0 | 0 | 50 | 20 | 50 | 100 | 100 | 100 | 40 | 10 | 10 | 30 | 
CCOC(=O)C(C)N(C=O)c1c(OC)c(Cl)cc(F)c1-c1nn(C)c(OC(F)F)c1Cl (stereo not drawn) [Compound 1-42] |  |  |  |  |  |  |  |  |  |  | 30 | 30 | 50 | 100 | 70 | 95 | 20 | 20 | 0 | 10 | Pre-emergence Herbicidal Activity ECHCG (growth controlling degree) ([1]; Rate 125 g a.i./ha): 0%; Pre-emergence Herbicidal Activity DIGSP (growth controlling degree) ([2]; Rate 125 g a.i./ha): 0%; Pre-emergence Herbicidal Activity SETVI (growth controlling degree) ([3]; Rate 125 g a.i./ha): 0%; Pre-emergence Herbicidal Activity AMARE (growth controlling degree) ([4]; Rate 125 g a.i./ha): 0%; Pre-emergence Herbicidal Activity SIDSP (growth controlling degree) ([5]; Rate 125 g a.i./ha): 0%; Pre-emergence Herbicidal Activity ABUTH (growth controlling degree) ([6]; Rate 125 g a.i./ha): 0%; Pre-emergence Herbicidal Activity ORYSA (growth controlling degree) ([7]; Rate 125 g a.i./ha): 0%; Pre-emergence Herbicidal Activity TRZAX (growth controlling degree) ([8]; Rate 125 g a.i./ha): 0%; Pre-emergence Herbicidal Activity ZEAMX (growth controlling degree) ([9]; Rate 125 g a.i./ha): 0%; Pre-emergence Herbicidal Activity GLXMA (growth controlling degree) ([10]; Rate 125 g a.i./ha): 0%
C#CCOC(=O)Nc1c(OC)c(Cl)cc(F)c1-c1nn(C)c(OC(F)F)c1Cl [Compound 1-74] | 90 | 100 | 100 | 100 | 100 | 100 | 50 | 30 | 10 | 0 | 98 | 70 | 100 | 100 | 100 | 100 | 95 | 50 | 30 | 60 | 

Reference: patent US20050245399A1, “Pyrazole derivatives as herbicidal compositions containing them” (ISHIHARA SANGYO KAISHA, LTD., priority 2004, published 2005)
